Laboratory results taken from patent publication US20200108070A2, “INHIBITORS OF FIBROBLAST GROWTH FACTOR RECEPTOR AND USE THEREOF” (Nanjing TransThera Biosciences Co. Ltd., priority 2016, published 2020).

Assays:
FGFR4 = FGFR4 (Homo sapiens, UniProt P22455); assay: Enzymatic activity test (LabChip EZ Reader II / Caliper), FGFR4; type: biochemical; conditions: FGFR4(h), FAM-labelled polypeptide substrate and ATP, 30 min incubation; read-out: Inhibitory activity against FGFR (IC50) FGFR4
Method: (§1) Experimental Example 1: Enzymatic Activity Test of the Compounds of the Present Invention
(§2) Test substance: The compounds of the present invention, the structures of which are shown above.
(§3) Test Instrument: The LabChip EZ Reader II drug screening platform.
(§4) 1. Preparation for compound plate a) 96-well plates, 10 dose groups, 3-fold serial dilutions, added DMSO to each well, maximal concentration of 500 μM. b) 384-well plates, diluted with 1× kinase buffer (50 mM HEPES, pH 7.5; 0.0015% Brij-35; 2 mM DTT), each well containing 5× compound dissolved in 5 μL of 10% DMSO. The negative control well was 5 μL of 1× kinase buffer containing 10% DMSO. 2. Experimental procedure
(§5) […] in 1× kinase buffer were reacted with 2.5× enzyme solution at room temperature for 10 min, and then the FAM-labelled polypeptide substrate and ATP were added to initiate reaction. After incubation for 30 min, 25 μL of terminal solution (100 mM HEPES, pH 7.5; 0.015% Brij-35; 0.2% Coating Reagent #3; 50 mM EDTA) was added to terminate the reaction, and the final data were read by Caliper.

FGFR1 = FGFR1 (Homo sapiens, UniProt P11362); assay: Enzymatic activity test (LabChip EZ Reader II / Caliper), FGFR1; type: biochemical; conditions: FGFR1(h), FAM-labelled polypeptide substrate and ATP, 30 min incubation; read-out: Inhibitory activity against FGFR (IC50) FGFR1
Method: as §1, §2, §3, §4, §5

RT112/84 = assay: Cellular activity test (Cell titer-Glo), RT112/84; type: cell-based; conditions: Homo sapiens, RT112/84, bladder cancer cell with abnormal FGFR, 72 h, read-out: Inhibitory activity against cells (IC50) RT112/84
Description: (§6) Experimental Example 2: Celluar Activity Test of the Compounds of the Present Invention
(§7) Hep3B is a cell with abnormal FGFR in hepatocellular carcinoma RT112/84 is a cell with abnormal FGFR in bladder cancer DMS114 is a cell with abnormal FGFR in small cell lung cancer AN3CA is a cell with abnormal FGFR in endometrial cancer SNU-16 is a cell with abnormal FGFR in gastric cancer
as §2
(§8) Test instrument: The Espire multi-function microplate reader.
(§9) Each cell line was seeded into a 96-well plate, and adherent cultured overnight. Then, the compounds at different concentrations (12 dose groups, 3× DMSO serial dilutions) were added to a final concentration of 0.17-30000 nM, with the final content of DMSO of 5‰. The negative control well was medium containing 5‰ DMSO. After incubation at 37° C., 5% CO2, 95% humidity for 72 h, the cultures would be test. 30 μL of Cell titer-Glo reagent was added to each well and incubated for 30 min at room temperature. The final data were read by Espire microplate reader.

Hep3B = assay: Cellular activity test (Cell titer-Glo), Hep3B; type: cell-based; conditions: Homo sapiens, hepatocellular carcinoma cell with abnormal FGFR, 72 h, read-out: Inhibitory activity against cells (IC50) Hep3B
Description: as §6, §7, §2, §8, §9

AN3CA = assay: Cellular activity test (Cell titer-Glo), AN3CA; type: cell-based; conditions: Homo sapiens, AN3-CA, endometrial cancer cell with abnormal FGFR, 72 h, read-out: Inhibitory activity against cells (IC50) AN3CA
Description: as §6, §7, §2, §8, §9

DMS114 = assay: Cellular activity test (Cell titer-Glo), DMS114; type: cell-based; conditions: Homo sapiens, DMS-114, DMS114, small cell lung cancer cell with abnormal FGFR, 72 h, read-out: Inhibitory activity against cells (IC50) DMS114
Description: as §6, §7, §2, §8, §9

FGFR3 = FGFR3 (Homo sapiens, UniProt P22607); assay: Enzymatic activity test (LabChip EZ Reader II / Caliper), FGFR3; type: biochemical; conditions: FGFR3(h), FAM-labelled polypeptide substrate and ATP, 30 min incubation; read-out: Inhibitory activity against FGFR (IC50) FGFR3
Method: as §1, §2, §3, §4, §5

FGFR2 = FGFR2 (Homo sapiens, UniProt P21802); assay: Enzymatic activity test (LabChip EZ Reader II / Caliper), FGFR2; type: biochemical; conditions: FGFR2(h), FAM-labelled polypeptide substrate and ATP, 30 min incubation; read-out: Inhibitory activity against FGFR (IC50) FGFR2
Method: as §1, §2, §3, §4, §5

Chain of FGFR3 (P22607 23-806): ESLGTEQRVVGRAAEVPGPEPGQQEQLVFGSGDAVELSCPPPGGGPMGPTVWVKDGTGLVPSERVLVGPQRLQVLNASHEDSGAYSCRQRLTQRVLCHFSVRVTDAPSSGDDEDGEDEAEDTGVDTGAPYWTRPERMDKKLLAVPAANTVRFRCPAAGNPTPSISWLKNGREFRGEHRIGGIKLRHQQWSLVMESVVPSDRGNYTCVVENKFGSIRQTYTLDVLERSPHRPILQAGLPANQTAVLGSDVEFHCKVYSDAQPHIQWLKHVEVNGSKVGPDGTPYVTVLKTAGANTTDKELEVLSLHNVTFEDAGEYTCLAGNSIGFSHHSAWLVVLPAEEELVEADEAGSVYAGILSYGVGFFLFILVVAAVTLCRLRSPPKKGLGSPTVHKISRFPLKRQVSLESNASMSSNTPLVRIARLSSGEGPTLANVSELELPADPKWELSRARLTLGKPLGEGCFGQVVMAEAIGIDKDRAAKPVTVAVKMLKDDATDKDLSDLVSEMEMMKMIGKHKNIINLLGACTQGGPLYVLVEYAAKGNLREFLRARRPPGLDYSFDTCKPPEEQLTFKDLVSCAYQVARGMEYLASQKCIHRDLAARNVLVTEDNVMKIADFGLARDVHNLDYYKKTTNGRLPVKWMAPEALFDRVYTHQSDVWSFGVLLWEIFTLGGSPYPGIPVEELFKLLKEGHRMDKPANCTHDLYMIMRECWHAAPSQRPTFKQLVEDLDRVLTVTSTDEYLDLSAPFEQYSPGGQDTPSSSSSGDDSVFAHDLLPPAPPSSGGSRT
Chain of FGFR1 (P11362 22-822): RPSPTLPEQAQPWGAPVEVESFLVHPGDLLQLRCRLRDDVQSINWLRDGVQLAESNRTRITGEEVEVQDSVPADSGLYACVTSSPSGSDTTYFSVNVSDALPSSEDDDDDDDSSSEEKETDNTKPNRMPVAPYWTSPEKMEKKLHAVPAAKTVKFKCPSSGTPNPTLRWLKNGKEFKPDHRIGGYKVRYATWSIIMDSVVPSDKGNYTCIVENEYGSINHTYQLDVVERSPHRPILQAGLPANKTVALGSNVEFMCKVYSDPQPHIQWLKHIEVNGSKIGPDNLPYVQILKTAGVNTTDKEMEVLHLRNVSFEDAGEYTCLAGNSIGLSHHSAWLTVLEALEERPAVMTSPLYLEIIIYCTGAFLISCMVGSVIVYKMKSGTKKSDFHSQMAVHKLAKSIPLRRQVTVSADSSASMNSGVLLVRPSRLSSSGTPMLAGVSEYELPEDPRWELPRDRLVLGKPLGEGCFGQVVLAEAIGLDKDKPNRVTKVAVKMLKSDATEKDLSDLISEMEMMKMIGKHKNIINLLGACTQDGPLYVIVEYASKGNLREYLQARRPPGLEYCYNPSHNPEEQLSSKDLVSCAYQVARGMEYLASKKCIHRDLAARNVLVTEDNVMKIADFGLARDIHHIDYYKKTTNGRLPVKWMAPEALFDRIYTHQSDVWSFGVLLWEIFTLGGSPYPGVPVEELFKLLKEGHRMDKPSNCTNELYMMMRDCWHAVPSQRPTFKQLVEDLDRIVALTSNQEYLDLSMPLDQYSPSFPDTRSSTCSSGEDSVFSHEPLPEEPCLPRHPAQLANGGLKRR
Chain of FGFR2 (P21802 22-821): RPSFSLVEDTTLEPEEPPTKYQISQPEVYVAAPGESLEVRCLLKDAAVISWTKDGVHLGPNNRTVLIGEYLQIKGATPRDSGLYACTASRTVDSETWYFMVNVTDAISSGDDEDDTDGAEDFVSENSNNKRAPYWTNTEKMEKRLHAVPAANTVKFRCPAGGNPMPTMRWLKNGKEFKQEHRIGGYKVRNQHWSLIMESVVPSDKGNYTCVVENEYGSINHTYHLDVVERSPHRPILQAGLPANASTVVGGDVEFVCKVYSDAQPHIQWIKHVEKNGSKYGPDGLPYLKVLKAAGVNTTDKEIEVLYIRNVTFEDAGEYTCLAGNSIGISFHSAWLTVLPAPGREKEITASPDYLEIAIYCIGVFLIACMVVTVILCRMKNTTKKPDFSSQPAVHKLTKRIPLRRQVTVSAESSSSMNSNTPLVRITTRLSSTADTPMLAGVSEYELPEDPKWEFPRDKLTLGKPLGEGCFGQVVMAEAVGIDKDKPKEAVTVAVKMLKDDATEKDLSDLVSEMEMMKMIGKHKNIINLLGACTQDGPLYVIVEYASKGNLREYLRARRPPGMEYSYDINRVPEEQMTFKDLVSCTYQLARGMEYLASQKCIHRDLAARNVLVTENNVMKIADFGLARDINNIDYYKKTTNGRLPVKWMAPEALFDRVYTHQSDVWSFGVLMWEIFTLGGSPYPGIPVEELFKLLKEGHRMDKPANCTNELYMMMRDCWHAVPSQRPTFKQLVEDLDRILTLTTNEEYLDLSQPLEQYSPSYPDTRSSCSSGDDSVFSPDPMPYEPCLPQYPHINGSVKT
Chain of FGFR4 (P22455 22-802): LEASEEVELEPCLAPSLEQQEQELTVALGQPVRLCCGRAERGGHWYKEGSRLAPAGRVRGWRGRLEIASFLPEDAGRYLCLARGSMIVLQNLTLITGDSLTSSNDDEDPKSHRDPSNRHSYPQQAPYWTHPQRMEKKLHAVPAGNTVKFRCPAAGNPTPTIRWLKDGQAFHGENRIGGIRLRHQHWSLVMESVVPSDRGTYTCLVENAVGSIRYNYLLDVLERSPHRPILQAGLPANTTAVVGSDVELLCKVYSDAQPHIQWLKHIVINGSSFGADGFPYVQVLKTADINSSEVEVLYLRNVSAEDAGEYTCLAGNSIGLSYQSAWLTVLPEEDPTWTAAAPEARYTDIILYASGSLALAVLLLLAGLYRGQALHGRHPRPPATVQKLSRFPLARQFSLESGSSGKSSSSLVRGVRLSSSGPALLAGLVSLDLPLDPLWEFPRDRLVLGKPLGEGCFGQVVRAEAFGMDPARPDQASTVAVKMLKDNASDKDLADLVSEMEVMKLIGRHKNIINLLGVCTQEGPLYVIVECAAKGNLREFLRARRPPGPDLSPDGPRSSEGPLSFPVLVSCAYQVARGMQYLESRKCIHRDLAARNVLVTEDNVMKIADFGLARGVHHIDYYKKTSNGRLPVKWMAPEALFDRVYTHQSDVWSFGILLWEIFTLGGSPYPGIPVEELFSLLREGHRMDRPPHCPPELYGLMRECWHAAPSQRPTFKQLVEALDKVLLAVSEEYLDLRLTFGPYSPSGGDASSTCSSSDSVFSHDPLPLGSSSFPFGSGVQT

Row | SMILES | IC50 (FGFR4) | IC50 (FGFR1) | IC50 (FGFR3) | IC50 (FGFR2) | IC50 (RT112/84) | IC50 (Hep3B) | IC50 (AN3CA) | IC50 (DMS114)
1 | C=CC(=O)N1C[C@@H](Nc2ncc3cc(-c4c(Cl)c(OC)cc(OC)c4Cl)ccc3n2)C2(CC2)C1 (stereo in doubt) [Compound 66] | 0.318 µM | 0.015 µM | – | – | – | – | – | –
2 | C=CC(=O)N1C[C@@H](Nc2ncc3cc(-c4c(Cl)c(OC)cc(OC)c4Cl)ccc3n2)C[C@H]1C [Compound 21, 1-((2R,4S)-4-((6-(2,6-dichloro-3,5-dimethoxyphenyl)quinazolin-2-yl)amino)-2-methylpyrrolidin-1-yl)propyl-2-en-1-one] | 0.33 µM | 0.008 µM | – | – | 0.054 µM | – | 0.176 µM | –
3 | C=CC(=O)N1C[C@@H](Nc2ncc3cc(-c4c(Cl)c(OC)cc(OC)c4Cl)ccc3n2)C[C@H]1CNC(C)=O [Compound 32, N-(((2S,4S)-1-acryloyl-4-((6-(2,6-dichloro-3,5-dimethoxyphenyl)quinazolin-2-yl)amino)pyrrolidin-2-yl)methyl)acetamide] | – | – | – | – | 0.078 µM | 0.147 µM | 0.167 µM | 0.048 µM
4 | C=CC(=O)N1C[C@@H](Nc2ncc3cc(-c4c(Cl)c(OC)cc(OC)c4Cl)ccc3n2)C[C@H]1CNS(C)(=O)=O [Compound 33, N-(((2S,4S)-1-acryloyl-4-((6-(2,6-dichloro-3,5-dimethoxyphenyl)quinazolin-2-yl)amino)pyrrolidin-2-yl)methyl)methanesulfonamide] | – | – | – | – | 0.065 µM | 0.0754 µM | 0.149 µM | 0.034 µM
5 | C=CC(=O)N1C[C@@H](Nc2ncc3cc(-c4c(Cl)c(OC)cc(OC)c4Cl)ccc3n2)C[C@H]1C(=O)N1CCC1 [Compound 35, 1-((2S,4S)-2-(azetidine-1-carbonyl)-4-((6-(2,6-dichloro-3,5-dimethoxyphenyl)quinazolin-2-yl)amino)pyrrolidin-1-yl)prop-2-en-1-one] | – | – | – | – | 0.06 µM | 0.095 µM | 0.112 µM | 0.052 µM
6 | C=CC(=O)N1C[C@@H](Nc2ncc3cc(-c4c(Cl)c(OC)cc(OC)c4Cl)ccc3n2)C[C@H]1C(=O)OCC [Compound 36, ethyl(2S,4S)-1-acryloyl-4-((6-(2,6-dichloro-3,5-dimethoxyphenyl)quinazolin-2-yl)amino)pyrrolidin-2-carboxylate] | – | – | – | – | – | 0.0707 µM | – | –
7 | C=CC(=O)N1C[C@@H](Nc2ncc3cc(-c4c(Cl)c(OC)cc(OC)c4Cl)ccc3n2)C[C@H]1C(=O)NC [Compound 37] | 0.317 µM | 0.0089 µM | – | – | – | – | – | –
8 | C=CC(=O)N1C[C@H](Nc2ncc3cc(-c4c(Cl)c(OC)cc(OC)c4Cl)ccc3n2)[C@@H](C)C1 [Compound 41] | – | 0.007 µM | – | – | – | – | – | –
9 | C=CC(=O)N1C[C@@H](Nc2ncc3cc(-c4c(Cl)c(OC)cc(OC)c4Cl)ccc3n2)C[C@H]1COC [Compound 53, 1-((2S,4S)-4-((6-(2,6-dichloro-3,5-dimethoxyphenyl)quinazolin-2-yl)amino)-2-(methoxymethyl)pyrrolidin-1-yl)prop-2-en-1-one] | – | – | – | – | 0.097 µM | – | – | 0.082 µM
10 | C=CC(=O)N1C[C@@H](Nc2ncc3cc(-c4c(Cl)c(OC)cc(OC)c4Cl)ccc3n2)C[C@H]1C(=O)N1CCCC1 [Compound 55, 1-((2S,4S)-4-((6-(2,6-dichloro-3,5-dimethoxyphenyl)quinazolin-2-yl)amino)-2-(pyrrolidin-1-carbonyl)pyrrolidin-1-yl)prop-2-en-1-one] | – | – | – | – | 0.054 µM | – | 0.066 µM | 0.021 µM
11 | C=CC(=O)N1CCC(Nc2ncc3cc(-c4c(Cl)c(OC)cc(OC)c4Cl)ccc3n2)C(C)C1 (stereo not shown) [Compound 61] | 0.268 µM | 0.006 µM | – | – | – | – | – | –
12 | CC#CC(=O)N1CCC(Nc2ncc3cc(-c4c(Cl)c(OC)cc(OC)c4Cl)ccc3n2)CC1 [Compound 63] | 0.196 µM | < 0.003 µM | – | – | – | – | – | –
13 | C=CC(=O)N1CC(Nc2ncc3cc(-c4c(Cl)c(OC)cc(OC)c4Cl)ccc3n2)c2ccccc21 (stereo not shown) [Compound 67] | 0.129 µM | 0.008 µM | – | 0.056 µM | – | – | – | –

The next lines start with results.

Row | IC50 (FGFR4) | IC50 (FGFR1) | IC50 (FGFR3) | IC50 (FGFR2) | SMILES | IC50 (RT112/84) | IC50 (Hep3B) | IC50 (AN3CA) | IC50 (DMS114)
14 | 0.198 µM | 0.021 µM | – | – | C=CC(=O)N1C[C@@H]2C[C@H]1[C@@H]2Nc1ncc2cc(-c3c(Cl)c(OC)cc(OC)c3Cl)ccc2n1 (relative stereo) [Compound 11, 1-(trans-5-((6-(2,6-dichloro-3,5-dimethoxyphenyl)quinazolin-2-yl)amino)-2-azabicyclo[2.1.1]hexane-2-yl)prop-2-en-1-one] | – | – | – | –
15 | 0.103 µM | 0.0037 µM | – | – | C=CC(=O)N1C[C@@H](Nc2ncc3cc(-c4c(Cl)c(OC)cc(OC)c4Cl)ccc3n2)C[C@H]1C(C)(C)O (stereo in doubt) [Compound 31, 1-((2R,4R)-4-((6-(2,6-dichloro-3,5-dimethoxyphenyl)quinazolin-2-yl)amino)-2-(2-hydroxypropyl-2-yl)pyrrolidin-1-yl)prop-2-en-1-one] | 0.07 µM | 0.046 µM | 0.117 µM | 0.025 µM
16 | 0.153 µM | – | – | – | C=CC(=O)N1CCCC(Nc2ncc3cc(-c4c(Cl)c(OC)cc(OC)c4Cl)ccc3n2)C1 (stereo not shown) [Compound 1] | – | – | – | –
17 | 0.78 µM | < 0.003 µM | 0.018 µM | – | C=CC(=O)N1CC[C@@H](Nc2ncc3cc(-c4c(Cl)c(OC)cc(OC)c4Cl)ccc3n2)C1 [Compound 6, (R)-1-(3-((6-(2,6-dichloro-3,5-dimethoxyphenyl)quinazolin-2-yl)amino)pyrrolidin-1-yl)prop-2-en-1-one] | – | – | – | –
18 | 0.301 µM | < 0.003 µM | 0.008 µM | – | C=CC(=O)N1CC(Nc2ncc3cc(-c4c(Cl)c(OC)cc(OC)c4Cl)ccc3n2)C1 [Compound 9] | – | – | – | –
19 | 0.177 µM | < 0.003 µM | 0.007 µM | – | C=CC(=O)N1CCC(Nc2ncc3cc(-c4c(Cl)c(OC)cc(OC)c4Cl)ccc3n2)CC1 [Compound 10, 1-(4-((6-(2,6-dichloro-3,5-dimethoxyphenyl)quinazolin-2-yl)amino)piperidin-1-yl)prop-2-en-1-one] | – | – | – | –
20 | 0.261 µM | 0.018 µM | – | – | C=CC(=O)N1C[C@@H](Nc2ncc3cc(-c4c(Cl)c(OC)cc(OC)c4Cl)ccc3n2)C[C@H]1CC#N [Compound 27, 2-((2S,4S)-1-acryloyl-4-((6-(2,6-dichloro-3,5-dimethoxyphenyl)quinazolin-2-yl)amino)pyrrolidin-2-yl)acetonitrile] | 0.127 µM | 0.082 µM | – | 0.072 µM
21 | 0.657 µM | 0.009 µM | – | – | C=CC(=O)N1C[C@@H](Nc2ncc3cc(-c4c(Cl)c(OC)cc(OC)c4Cl)ccc3n2)C[C@H]1C(=O)N(C)C [Compound 30, (2S,4S)-1-acryloyl-4-((6-(2,6-dichloro-3,5-dimethoxyphenyl)quinazolin-2-yl)amino)-N,N-dimethylpyrrolidin-2-carboxamide] | 0.117 µM | 0.0775 µM | – | –
22 | 0.318 µM | < 0.003 µM | – | – | C=CC(=O)N1C[C@@H](O)[C@H](Nc2ncc3cc(-c4c(Cl)c(OC)cc(OC)c4Cl)ccc3n2)C1 [Compound 39] | – | – | – | –
23 | – | 0.0058 µM | 0.022 µM | 0.0082 µM | C=CC(=O)N1C[C@H](O)[C@H](Nc2ncc3cc(-c4c(Cl)c(OC)cc(OC)c4Cl)ccc3n2)C1 [Compound 46] | – | – | – | –
24 | – | 0.017 µM | 0.075 µM | 0.025 µM | C=CC(=O)N1C[C@@H](CC)[C@H](Nc2ncc3cc(-c4c(Cl)c(OC)cc(OC)c4Cl)ccc3n2)C1 [Compound 48] | – | – | – | –
25 | – | 0.007 µM | – | – | CC#CC(=O)N1CCC[C@H](Nc2ncc3cc(-c4c(Cl)c(OC)cc(OC)c4Cl)ccc3n2)C1 [Compound 62] | – | – | – | –
